Measured values as given in publication PMC8725837, “2-Arylquinolines as novel anticancer agents with dual EGFR/FAK kinase inhibitory activity: synthesis, biological evaluation, and molecular modelling insights” (Journal of Enzyme Inhibition and Medicinal Chemistry, 2021).

Tests used:
IGF-1R = molecular target: T1, IGF-1R (Homo sapiens, UniProt P08069); test: Z`-LYTE kinase profiling, IGF-1R; assay type: biochemical
T1 construct: purchased Invitrogen/Life Technologies

VEGFR-2 = molecular target: T2, VEGFR-2 (Homo sapiens, UniProt P35968); test: Z`-LYTE kinase profiling, VEGFR-2; assay type: biochemical
T2 construct: purchased Invitrogen/Life Technologies

[1] = test system: DLD-1 colorectal cancer cell line; test: Annexin V-FITC/propidium iodide apoptosis assay (AV/PI); assay type: cell-based; settings: 3 µM, 24 h; control 7%
Protocol: Also, compounds 6f, 6i, 16d, and 20f exerted potential apoptotic effect elevating the total percentage of apoptotic cells to 84.33, 71.66, 51.66, and 80.66%, respectively.
Flow cytometric analysis was conducted using FACS Calibur flow cytometer (BD Biosciences, San Jose, CA, USA).

c-Src = molecular target: T3, c-Src (Homo sapiens, UniProt P12931); test: Z`-LYTE kinase profiling, c-Src; assay type: biochemical
T3 construct: purchased Invitrogen/Life Technologies

[2] = test system: HeLa cervical cancer cell line; test: MTT antiproliferative assay, HeLa; assay type: cell-based; settings: 10 µM, 24 h
Protocol: (§1) At least, three independent experiments were performed.

[3] = test system: MCF-7 breast cancer cell line; test: MTT antiproliferative assay, MCF-7; assay type: cell-based; settings: 10 µM, 24 h
Protocol: as §1

FRK = molecular target: T4, FRK (Homo sapiens, UniProt P42685); test: Z`-LYTE kinase profiling, FRK; assay type: biochemical
T4 construct: purchased Invitrogen/Life Technologies

[4] = test system: HCT-116 colorectal cancer cell line; test: MTT antiproliferative assay, HCT-116; settings: for GI% HCT-116: 10 µM, 24 h, MTT; for IC50: Homo sapiens, HCT-116, 24 h, read-out: IC50 HCT-116 (half maximal growth inhibitory concentration)
Protocol: (§2) After the incubation of the tested compounds for 24 h, the percent growth inhibition (GI%) was calculated.
(§3) Cells were seeded at 1 × 10^4 cells/well and cultured overnight in a 96-well plate. […] Then, 150 µl DMSO was used to solubilise MTT formazan crystals. Finally, the plates were shaken, and the optical density was determined at 570 nm using ELISA plate reader. At least, three independent experiments were performed. Percentage of growth inhibition was determined as (1-[OD of treated cells/OD of control cells]). […] The IC50 values were calculated using Prism v0.8 software (GraphPad Software Inc., La Jolla, CA).

EGFR = EGFR (Homo sapiens, UniProt P00533); test: Z`-LYTE kinase inhibitory assay, EGFR
recombinant human TOP1 = molecular target: T5, recombinant human TOP1 (Homo sapiens, UniProt P11387); test: Topoisomerase I-mediated DNA cleavage assay; settings: tested at 0.1, 1, 10, 100 µM
T5 sequence (P11387 1-765): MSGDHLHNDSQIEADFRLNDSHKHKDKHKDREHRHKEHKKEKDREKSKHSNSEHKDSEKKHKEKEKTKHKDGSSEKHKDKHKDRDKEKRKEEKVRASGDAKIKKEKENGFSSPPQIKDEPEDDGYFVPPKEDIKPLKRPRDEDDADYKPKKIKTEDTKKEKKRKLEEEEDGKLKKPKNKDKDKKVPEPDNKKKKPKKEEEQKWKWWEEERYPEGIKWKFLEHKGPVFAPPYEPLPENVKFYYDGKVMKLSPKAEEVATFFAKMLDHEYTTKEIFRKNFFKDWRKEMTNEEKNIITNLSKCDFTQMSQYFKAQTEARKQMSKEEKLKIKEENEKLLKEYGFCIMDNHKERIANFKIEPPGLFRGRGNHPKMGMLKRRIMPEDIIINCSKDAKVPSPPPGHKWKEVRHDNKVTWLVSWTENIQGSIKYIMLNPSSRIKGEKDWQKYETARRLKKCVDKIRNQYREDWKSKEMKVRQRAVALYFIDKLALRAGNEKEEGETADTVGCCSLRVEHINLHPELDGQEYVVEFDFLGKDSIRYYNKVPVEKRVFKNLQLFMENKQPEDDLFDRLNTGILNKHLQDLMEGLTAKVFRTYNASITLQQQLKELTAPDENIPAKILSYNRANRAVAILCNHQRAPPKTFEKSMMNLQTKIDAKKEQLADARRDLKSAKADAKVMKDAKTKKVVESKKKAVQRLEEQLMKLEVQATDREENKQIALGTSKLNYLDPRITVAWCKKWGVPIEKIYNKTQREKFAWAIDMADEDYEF
Protocol: Radiolabeled DNA was incubated with recombinant human TOP1 in 20 µL reaction buffer (10 mmol/L Tris-HCl, pH 7.5, 50 mmol/L KCl, 5 mmol/L MgCl2, 0.1 mmol/L EDTA, and 15 µg/mL BSA) at 30 °C for 20 min in the presence of the indicated drug concentrations. Reactions were terminated by adding SDS (0.5% final concentration) followed by the addition of two volumes of loading dye (80% formamide, 10 mmol/L sodium hydroxide, 1 mmol/L sodium EDTA, 0.1% xylene cyanol, and 0.1% bromophenol blue). Aliquots of reaction mixtures were subjected to 20% denaturing PAGE. Gels were dried and visualised by using PhosphorImager and Image Quant software (Molecular Dynamics).

FAK = FAK (Homo sapiens, UniProt Q05397); test: Z`-LYTE kinase inhibitory assay, FAK
HER-2 = molecular target: T6, HER-2 (Homo sapiens, UniProt P04626); test: Z`-LYTE kinase profiling, HER-2; assay type: biochemical
T6 construct: purchased Invitrogen/Life Technologies

BTK = molecular target: T7, BTK (Homo sapiens, UniProt Q06187); test: Z`-LYTE kinase profiling, BTK; assay type: biochemical
T7 construct: purchased Invitrogen/Life Technologies

[5] = test system: MDMBA-231 breast cancer cell line; test: MTT antiproliferative assay, MDMBA-231; assay type: cell-based; settings: 10 µM, 24 h
Protocol: as §1

VEGFR-1 = molecular target: T8, VEGFR-1 (Homo sapiens, UniProt P17948); test: Z`-LYTE kinase profiling, VEGFR-1; assay type: biochemical
T8 construct: purchased Invitrogen/Life Technologies

[6] = test system: DLD-1 colorectal cancer cell line; test: MTT antiproliferative assay, DLD-1; settings: for GI% DLD1: 10 µM, 24 h, MTT; for IC50: Homo sapiens, DLD-1, 24 h, read-out: IC50 DLD1 (half maximal growth inhibitory concentration); for fold superior activity compared to Gefitinib, DLD-1: from IC50 values
Protocol: as §2, §3

T7 sequence (Q06187 whole entry): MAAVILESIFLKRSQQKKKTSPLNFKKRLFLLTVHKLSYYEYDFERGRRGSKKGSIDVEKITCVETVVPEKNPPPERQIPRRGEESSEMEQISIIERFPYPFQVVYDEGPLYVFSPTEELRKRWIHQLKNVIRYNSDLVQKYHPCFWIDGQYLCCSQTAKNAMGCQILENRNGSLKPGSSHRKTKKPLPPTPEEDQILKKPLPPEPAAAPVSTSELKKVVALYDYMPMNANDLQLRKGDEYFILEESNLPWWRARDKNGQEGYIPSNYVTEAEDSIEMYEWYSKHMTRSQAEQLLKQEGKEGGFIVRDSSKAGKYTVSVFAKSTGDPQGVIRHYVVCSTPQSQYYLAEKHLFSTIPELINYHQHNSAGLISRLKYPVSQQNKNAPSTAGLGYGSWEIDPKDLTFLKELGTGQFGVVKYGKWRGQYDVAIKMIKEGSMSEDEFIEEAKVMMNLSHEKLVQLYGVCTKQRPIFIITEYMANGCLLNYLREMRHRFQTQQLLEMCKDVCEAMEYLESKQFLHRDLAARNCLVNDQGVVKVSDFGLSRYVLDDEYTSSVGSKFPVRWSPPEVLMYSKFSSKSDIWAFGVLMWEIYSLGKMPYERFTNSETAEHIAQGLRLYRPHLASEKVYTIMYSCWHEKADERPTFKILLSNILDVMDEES
T3 sequence (P12931 whole entry): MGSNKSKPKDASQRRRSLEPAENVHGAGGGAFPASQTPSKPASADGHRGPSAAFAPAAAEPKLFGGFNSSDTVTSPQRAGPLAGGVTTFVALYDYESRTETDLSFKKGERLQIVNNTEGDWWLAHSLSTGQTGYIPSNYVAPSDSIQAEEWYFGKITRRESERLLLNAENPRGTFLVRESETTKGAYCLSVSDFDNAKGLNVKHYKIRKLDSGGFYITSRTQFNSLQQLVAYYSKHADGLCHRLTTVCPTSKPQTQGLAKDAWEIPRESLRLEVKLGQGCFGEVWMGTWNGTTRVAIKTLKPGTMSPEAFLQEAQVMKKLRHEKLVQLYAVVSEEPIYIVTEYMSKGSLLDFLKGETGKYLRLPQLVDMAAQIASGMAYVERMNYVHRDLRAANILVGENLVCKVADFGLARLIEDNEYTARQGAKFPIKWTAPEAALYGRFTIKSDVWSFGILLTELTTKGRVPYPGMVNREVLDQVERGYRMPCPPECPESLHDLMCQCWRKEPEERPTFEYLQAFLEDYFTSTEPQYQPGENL
FAK, sequence (Q05397 whole entry): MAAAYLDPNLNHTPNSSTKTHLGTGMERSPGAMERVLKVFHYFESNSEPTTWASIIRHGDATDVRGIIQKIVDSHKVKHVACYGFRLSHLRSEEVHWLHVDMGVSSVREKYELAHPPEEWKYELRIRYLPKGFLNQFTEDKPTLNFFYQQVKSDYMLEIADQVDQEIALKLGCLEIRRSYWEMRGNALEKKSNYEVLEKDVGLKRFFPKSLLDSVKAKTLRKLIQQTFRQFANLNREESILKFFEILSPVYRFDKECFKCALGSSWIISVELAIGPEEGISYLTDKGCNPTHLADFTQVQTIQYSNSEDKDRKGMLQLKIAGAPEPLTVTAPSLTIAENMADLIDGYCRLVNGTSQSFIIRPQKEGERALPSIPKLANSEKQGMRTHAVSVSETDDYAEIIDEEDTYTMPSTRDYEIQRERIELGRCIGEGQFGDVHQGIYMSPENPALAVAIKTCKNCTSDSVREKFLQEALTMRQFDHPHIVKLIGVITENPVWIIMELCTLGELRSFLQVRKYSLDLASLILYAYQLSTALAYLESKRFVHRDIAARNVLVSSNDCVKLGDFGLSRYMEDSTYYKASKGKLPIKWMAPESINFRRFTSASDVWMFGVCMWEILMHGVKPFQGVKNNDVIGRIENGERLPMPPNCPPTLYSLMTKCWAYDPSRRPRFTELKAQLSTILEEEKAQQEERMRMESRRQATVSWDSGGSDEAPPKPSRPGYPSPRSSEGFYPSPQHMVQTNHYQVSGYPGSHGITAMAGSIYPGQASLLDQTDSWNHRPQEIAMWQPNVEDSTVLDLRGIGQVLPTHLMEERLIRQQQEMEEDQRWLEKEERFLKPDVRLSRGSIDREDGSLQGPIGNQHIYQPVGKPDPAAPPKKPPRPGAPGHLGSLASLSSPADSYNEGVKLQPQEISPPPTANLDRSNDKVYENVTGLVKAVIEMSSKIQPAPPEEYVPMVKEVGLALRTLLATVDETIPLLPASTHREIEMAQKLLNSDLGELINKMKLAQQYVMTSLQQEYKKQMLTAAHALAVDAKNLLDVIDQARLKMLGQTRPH
EGFR, sequence (P00533 25-1210): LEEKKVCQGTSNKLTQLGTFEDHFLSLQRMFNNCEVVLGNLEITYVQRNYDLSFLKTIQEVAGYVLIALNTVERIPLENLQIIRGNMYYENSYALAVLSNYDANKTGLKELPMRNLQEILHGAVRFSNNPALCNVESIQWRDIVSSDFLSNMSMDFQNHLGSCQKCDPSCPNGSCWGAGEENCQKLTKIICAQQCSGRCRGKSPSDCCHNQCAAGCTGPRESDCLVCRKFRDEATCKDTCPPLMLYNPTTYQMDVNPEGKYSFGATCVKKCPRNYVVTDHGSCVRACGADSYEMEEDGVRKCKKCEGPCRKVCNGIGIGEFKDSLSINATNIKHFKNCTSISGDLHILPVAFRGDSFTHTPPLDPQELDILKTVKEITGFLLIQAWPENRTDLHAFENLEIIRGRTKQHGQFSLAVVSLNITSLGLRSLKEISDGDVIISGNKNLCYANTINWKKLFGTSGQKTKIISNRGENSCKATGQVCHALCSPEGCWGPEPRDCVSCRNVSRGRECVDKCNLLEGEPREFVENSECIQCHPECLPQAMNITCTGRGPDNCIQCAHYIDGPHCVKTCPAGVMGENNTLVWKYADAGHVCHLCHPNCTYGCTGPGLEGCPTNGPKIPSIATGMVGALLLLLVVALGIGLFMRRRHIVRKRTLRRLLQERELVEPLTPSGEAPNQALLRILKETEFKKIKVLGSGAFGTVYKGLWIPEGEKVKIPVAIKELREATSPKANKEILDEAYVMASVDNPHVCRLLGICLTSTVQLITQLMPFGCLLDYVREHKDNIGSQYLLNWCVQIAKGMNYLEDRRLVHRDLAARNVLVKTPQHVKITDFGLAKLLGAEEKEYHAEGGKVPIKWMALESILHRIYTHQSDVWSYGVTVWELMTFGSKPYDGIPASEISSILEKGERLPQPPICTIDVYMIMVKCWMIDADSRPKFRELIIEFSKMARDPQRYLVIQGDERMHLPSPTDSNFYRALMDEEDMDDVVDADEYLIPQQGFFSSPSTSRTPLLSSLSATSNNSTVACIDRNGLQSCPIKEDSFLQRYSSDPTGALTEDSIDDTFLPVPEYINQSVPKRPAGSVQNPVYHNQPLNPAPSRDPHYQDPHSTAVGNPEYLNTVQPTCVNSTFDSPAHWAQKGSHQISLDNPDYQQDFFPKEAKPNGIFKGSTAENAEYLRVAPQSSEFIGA
T4 sequence (P42685 whole entry): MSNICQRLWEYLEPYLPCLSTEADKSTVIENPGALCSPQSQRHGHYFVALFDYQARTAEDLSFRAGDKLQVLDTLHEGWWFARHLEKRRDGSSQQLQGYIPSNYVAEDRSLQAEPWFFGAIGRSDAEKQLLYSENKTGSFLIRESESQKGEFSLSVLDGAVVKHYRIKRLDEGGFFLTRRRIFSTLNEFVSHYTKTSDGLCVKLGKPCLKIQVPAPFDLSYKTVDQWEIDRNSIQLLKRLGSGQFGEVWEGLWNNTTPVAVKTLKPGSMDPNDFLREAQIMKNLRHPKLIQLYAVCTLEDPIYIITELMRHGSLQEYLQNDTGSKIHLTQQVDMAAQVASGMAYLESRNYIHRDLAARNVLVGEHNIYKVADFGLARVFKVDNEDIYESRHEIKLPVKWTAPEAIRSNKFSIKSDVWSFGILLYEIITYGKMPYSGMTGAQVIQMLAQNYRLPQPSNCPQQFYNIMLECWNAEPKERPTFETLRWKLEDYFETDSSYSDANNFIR

SMILES | IC50 (IGF-1R) | IC50 (VEGFR-2) | IC50 (c-Src) | IC50 (FRK) | IC50 [4] | IC50 (EGFR) | TOP1 inhibitory activity (semiquantitative score relative to 1 µM CPT) (recombinant human TOP1) | IC50 (FAK) | IC50 (HER-2) | IC50 (BTK) | IC50 (VEGFR-1) | IC50 [6] | melting point | total percentage of AV positive apoptotic DLD-1 cells [1] | GI% Hela [2] | GI% MCF-7 [3] | GI% HCT-116 [4] | GI% MDMBA-231 [5] | GI% DLD1 [6] | fold superior activity compared to Gefitinib, DLD-1 [6]
COc1cc2nc(-c3ccc(C(F)(F)F)cc3)cc(OCCCN3CCN(C)CC3)c2cc1OC [6f, 6,7-dimethoxy-4–(3-(4-methylpiperazin-1-yl)propoxy)-2–(4-(trifluoromethyl)phenyl)quin-oline] | 5350 nM | 1940 nM | 3.94 µM | 5050 nM | 3.09 ± 1.05 µM | 25.4 ± 3.49 nM | 0 | 22.7 ± 2.38 nM | 639 nM | 8.79 µM | 1730 nM | 2250 ± 960 nM | – | 84.33% | 69.17% | 94.36% | 88.46% | 75.34% | 95.36% | 4 fold
COc1cc2nc(-c3ccc(C(F)(F)F)cc3)cc(OCCCNC3CCN(C)CC3)c2cc1OC [6h, N-(3-((6,7-dimethoxy-2–(4-(trifluoromethyl)phenyl)quinolin-4-yl)oxy)propyl)-1-methyl p-iperidin-4-amine] | 197 nM | 2450 nM | 3.58 µM | 330 nM | 3.28 ± 0.67 µM | 20.2 ± 1.07 nM | −/+ (−/+: 0–25% 1 µM CPT) | 14.2 ± 2.72 nM | 1580 nM | 3.48 µM | 464 nM | 1790 ± 210 nM | – | 90.33% | 90.78% | 90.36% | 89.34% | 84.76% | 92.36% | 5 fold
Clc1ccc(-c2cc(OCCCN3CCOCC3)c3cc(-c4ccco4)ccc3n2)cc1 [20f, 4-(3-((2-(4-chlorophenyl)-6-(furan-2-yl)quinolin-4-yl)oxy)propyl)morpholine] | 3530 nM | 89.3 nM | 0.0921 µM | 632 nM | 2.96 ± 0.12 µM | 24.8 ± 2.71 nM | 0 | 15.4 ± 0.98 nM | 251 nM | 0.0235 µM | 870 nM | 2090 ± 140 nM | – | 80.66% | 79.64% | 87.36% | 91.37% | 82.58% | 94.18% | 4 fold

The next lines start with results.

IC50 (IGF-1R) | IC50 (VEGFR-2) | IC50 (c-Src) | IC50 (FRK) | IC50 [4] | IC50 (EGFR) | TOP1 inhibitory activity (semiquantitative score relative to 1 µM CPT) (recombinant human TOP1) | IC50 (FAK) | IC50 (HER-2) | IC50 (BTK) | IC50 (VEGFR-1) | IC50 [6] | melting point | SMILES | total percentage of AV positive apoptotic DLD-1 cells [1] | GI% Hela [2] | GI% MCF-7 [3] | GI% HCT-116 [4] | GI% MDMBA-231 [5] | GI% DLD1 [6] | fold superior activity compared to Gefitinib, DLD-1 [6]
1710 nM | 8240 nM | 7.01 µM | 1210 nM | 5.68 ± 1.42 µM | 22.4 ± 2.05 nM | 0 | 18.4 ± 3.17 nM | 1380 nM | 7.29 µM | 801 nM | 2480 ± 860 nM | – | COc1cc2nc(-c3ccc(C(F)(F)F)cc3)cc(OCCCNCC3CCCO3)c2cc1OC (stereo not drawn) [6i, 3-((6,7-dimethoxy-2–(4-(trifluoromethyl)phenyl)quinolin-4-yl)oxy)-N-((tetrahydrofuran-2-yl)methyl)propan-1-amine] | 71.66% | 78.64% | 89.49% | 82.11% | 81.60% | 88.76% | 4 fold
2230 nM | 4690 nM | 3.9 µM | 1730 nM | 2.43 ± 0.71 µM | 35 ± 2.64 nM | 0 | 17.4 ± 2.15 nM | 358 nM | 2.1 µM | 1770 nM | 2180 ± 520 nM | 132 to 134 °C | Fc1ccc(-c2cc(OCCCN3CCOCC3)c3cc(Br)ccc3n2)cc1 [16d, 4-(3-((6-bromo-2-(4-fluorophenyl)quinolin-4-yl)oxy)propyl)morpholine] | 51.66% | 85.67% | 86.38% | 97.48% | 80.24% | 90.11% | 4 fold
